Assay results from BindingDB's records for doi:10.7270/Q2TX3CTT (Broad Institute, 2010).
Counter-ions that a name gives are not always drawn.

Molecular target: Glycogen synthase kinase-3 beta (Homo sapiens, UniProt P49841)
Assay: concentration-response blocking of human GSK3B – biochemical, luminescence, cell-free homogeneous, retest, dose response (AID 434954)

Glycogen synthase kinase-3 beta, sequence (P49841 whole entry): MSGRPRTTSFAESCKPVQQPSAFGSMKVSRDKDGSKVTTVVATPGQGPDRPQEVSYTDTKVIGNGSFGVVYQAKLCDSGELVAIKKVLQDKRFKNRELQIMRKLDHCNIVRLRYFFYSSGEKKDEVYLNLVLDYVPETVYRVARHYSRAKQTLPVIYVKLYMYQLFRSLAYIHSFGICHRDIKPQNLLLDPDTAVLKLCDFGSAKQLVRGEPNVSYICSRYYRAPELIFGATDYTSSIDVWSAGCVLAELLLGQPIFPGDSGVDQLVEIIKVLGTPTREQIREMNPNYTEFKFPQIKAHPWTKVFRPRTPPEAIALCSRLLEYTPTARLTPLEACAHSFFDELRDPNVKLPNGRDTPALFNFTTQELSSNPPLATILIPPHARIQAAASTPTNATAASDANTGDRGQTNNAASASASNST

Compound | EC50 [µM]
Cn1c(=O)c2[nH]c(CCCC(=O)O)nc2n(Cc2ccccc2)c1=S [4-(3-benzyl-1-methyl-6-oxo-2-sulfanylidene-7H-purin-8-yl)butanoic acid] | 5.17
Cc1ccc(C)c(S(=O)(=O)NCc2ccc(C(=O)N3CC(C)OC(C)C3)cc2)c1 (stereo not given) [N-[[4-(2,6-dimethylmorpholin-4-yl)carbonylphenyl]methyl]-2,5-dimethyl-benzenesulfonamide] | > 300
Cc1ccc(CNc2nc(N)c([N+](=O)[O-])c(NCCO)n2)cc1 | 117
COc1ccc(-c2nn(-c3ccccc3)cc2C=NNC(=O)c2ccc(Br)o2)cc1 [5-bromo-N-[[3-(4-methoxyphenyl)-1-phenyl-4-pyrazolyl]methylideneamino]-2-furancarboxamide] | > 300
O=Cc1ccc(Oc2nc(Cl)ncc2F)cc1 [4-[(2-chloro-5-fluoro-4-pyrimidinyl)oxy]benzaldehyde] | > 300
Cc1oc2ccc(OC(=O)c3cccs3)cc2c1C(=O)OC(C)C [2-Methyl-5-(thiophene-2-carbonyloxy)-benzofuran-3-carboxylic acid isopropyl ester] | > 300
O=C(CCS(=O)(=O)c1ccc(Br)cc1)Nc1ccc(Cl)cc1F [3-(4-bromophenyl)sulfonyl-N-(4-chloranyl-2-fluoranyl-phenyl)propanamide] | > 300
COc1ccc2c(c1)C(=O)Nc1cc(Cl)ccc1N2 [8-chloro-2-methoxy-5,10-dihydro-11H-dibenzo[b,e][1,4]diazepin-11-one] | > 300
Cc1ccc2c(c1)NC(=O)c1cc([N+](=O)[O-])ccc1O2 [8-methyl-2-nitrodibenzo[b,f][1,4]oxazepin-11(10H)-one] | > 300
NS(=O)(=O)c1ccc(Nc2nc(-c3ccc(O)cc3O)cs2)cc1 [4-(4-(2,4-dihydroxyphenyl)thiazol-2-ylamino)benzenesulfonamide] | 5.73
COCCNc1nc(N)c([N+](=O)[O-])c(NC2CCCCC2)n1 | 5.35
COc1cc(CN=O)ccc1Oc1ccc([N+](=O)[O-])cc1[N+](=O)[O-] [N-[[4-(2,4-dinitrophenoxy)-3-methoxyphenyl]methylidene]hydroxylamine] | > 300
CCOC(=O)c1sc(=S)n(-c2ccccc2OC)c1N | > 300
O=C(COc1cccc2cccnc12)NN=Cc1ccc(O)cc1 [N'-[(4-oxo-1-cyclohexa-2,5-dienylidene)methyl]-2-(8-quinolinyloxy)acetohydrazide] | 9.3
COc1cccc2cc(C(=O)NCc3ccccc3Br)c(=O)oc12 [N-[(2-bromophenyl)methyl]-8-methoxy-2-oxo-1-benzopyran-3-carboxamide] | > 300
COc1cccc(/C=C2/Sc3ccc(C(=O)NCCCN4CCCC4)cc3NC2=O)c1 | 2.82
Cc1ccnc(NC(=O)c2cccc([N+](=O)[O-])c2C)c1 [2-methyl-N-(4-methylpyridin-2-yl)-3-nitro-benzamide] | > 300
O=C(O)c1ccccc1Nc1ccc([N+](=O)[O-])cc1 | > 300
COc1ccc(-c2nn(CCC#N)cc2CN=O)cc1OC [3-[3-(3,4-dimethoxyphenyl)-4-(hydroxyiminomethyl)pyrazol-1-yl]propanenitrile] | > 300
c1ccc(Cn2c(-c3ccco3)nc3nc4ccccc4nc32)cc1 [3-benzyl-2-(furan-2-yl)imidazo[4,5-b]quinoxaline] | > 300
CCCCc1cc(=O)oc2cc(O)cc(O)c12 [4-butyl-5,7-dihydroxy-2H-chromen-2-one] | 15.2
Cc1cccc(C(=O)NC2CC3CCCC(C2)N3Cc2ccccc2)c1 (stereo not given) [MLS001212730] | > 300
CCOC(=O)CSc1nnc(-c2cccs2)n1-c1ccccc1 | > 300

Compound | EC50 [µM]
C=CCN1C(=O)C(Cc2ccc(Br)cc2)SC1=NN=Cc1ccco1 (stereo not given) | > 300
O=C(CCS(=O)(=O)c1ccccc1)Nc1cccc2c1C(=O)NC2=O [3-(benzenesulfonyl)-N-(1,3-dioxoisoindol-4-yl)propanamide] | 25.2
COC(=O)c1nnn(-c2nonc2N)c1CSc1nnc(N)s1 [1-(4-amino-1,2,5-oxadiazol-3-yl)-5-[[(5-amino-1,3,4-thiadiazol-2-yl)thio]methyl]-4-triazolecarboxylic acid methyl ester] | 40
Cc1nn(CC(=O)N2CCN(c3ccccn3)CC2)c(=O)c2cc3sccc3n12 [1-methyl-3-[2-oxidanylidene-2-(4-pyridin-2-ylpiperazin-1-yl)ethyl]thieno[3,4]pyrrolo[3,5-c][1,2,4]triazin-4-one] | > 300
C[C@H]1[C@@H](c2ccccc2)O[C@@H](c2ccccc2Br)N1C [MLS001242758] | > 300
CCCCCOC(=O)C1C(C)=Nc2ncnn2C1c1cccs1 (stereo not given) | > 300
Cc1cnc(C(=O)OCC(=O)N2c3ccccc3CC2C)cn1 (stereo not given) [[2-(2-methyl-2,3-dihydroindol-1-yl)-2-oxoethyl] 5-methylpyrazine-2-carboxylate] | > 300
c1ccc2c(c1)oc1c(NCCCn3ccnc3)ncnc12 | > 300
CC1=Nc2ncnn2C(c2ccco2)C1C(=O)OCc1ccccc1 (stereo not given) [benzyl 7-(furan-2-yl)-5-methyl-1,7-dihydro-[1,2,4]triazolo[1,5-a]pyrimidine-6-carboxylate] | 40.7
COC(=O)c1nnn(-c2nonc2N)c1CSc1ccc(Cl)cc1 | 15.9
O=C(Oc1ccc(Cl)cc1)N1CCCCC1 [(4-chlorophenyl) piperidine-1-carboxylate] | > 300
CCCN(CCC)Cc1c(C(=O)NN=Cc2ccncc2)nnn1-c1nonc1N [1-(4-amino-1,2,5-oxadiazol-3-yl)-5-[(dipropylamino)methyl]-N-(pyridin-4-ylmethylideneamino)triazole-4-carboxamide] | 0.879
CCc1cc(=O)oc2cc(C)cc(O)c12 [4-ethyl-5-hydroxy-7-methyl-1-benzopyran-2-one] | > 300
Cc1ccc(C(OCCN(C)C)c2cccc(C(F)(F)F)c2)cc1 (stereo not given) [(Z)-but-2-enedioic acid;N,N-dimethyl-2-[(4-methylphenyl)-[3-(trifluoromethyl)phenyl]methoxy]ethanamine] | > 300
N#Cc1c(N)nc(-c2ccccc2)nc1-c1ccccc1 [4-amino-2,6-diphenyl-5-pyrimidinecarbonitrile] | > 300
CC(=O)CSc1nc(-c2cccs2)c(C#N)c(=O)[nH]1 [4-oxidanylidene-2-(2-oxidanylidenepropylsulfanyl)-6-thiophen-2-yl-1H-pyrimidine-5-carbonitrile] | > 300
CC(C)N1CCc2c(sc(NC(=O)CCS(=O)(=O)c3ccccc3)c2C(N)=O)C1 [2-[[3-(benzenesulfonyl)-1-oxopropyl]amino]-6-propan-2-yl-5,7-dihydro-4H-thieno[2,3-c]pyridine-3-carboxamide;hydrochloride] | > 300
COC(=O)c1c(N)c(C#N)c2n1CCCCC2 [methyl 2-amino-1-cyano-6,7,8,9-tetrahydro-5H-pyrrolo[1,2-a]azepine-3-carboxylate] | > 300
CCc1nn(CC(=O)NCCC(C)C)c(=O)c2cc3c(OC)cccc3n12 [2-(4-ethyl-9-methoxy-1-oxo-[1,2,4]triazino[4,5-a]indol-2-yl)-N-(3-methylbutyl)acetamide] | > 300
CCC(O)CNc1nc(SC)nc2sc3c(c12)CCN(C)C3 (stereo not given) | 1.75
COC(=O)C(C(=O)OC)c1ccc(NC(=O)c2cccc(Cl)c2)cc1 [dimethyl 2-{4-[(3-chlorobenzoyl)amino]phenyl}malonate] | > 300
Nc1ncnc2c1ncn2[C@@H]1O[C@H](CO)[C@@H](O)[C@H]1N | > 300
COc1ccc(OCCCC(=O)NCc2ccco2)cc1 [N-Furan-2-ylmethyl-4-(4-methoxy-phenoxy)-butyramide] | > 300

Second part, the compound after the results:

EC50 [µM] | Compound
> 300 | Cc1nc2nc(=O)c3c(n2[nH]1)NC1=C(C(=O)CC(C)(C)C1)C3c1ccc(F)cc1 (stereo not given) [MLS000084336]
> 300 | COc1ccc(-c2nnc(NC(=O)C3=COCCO3)o2)cc1 [MLS000722006]
> 300 | COc1ccc(-c2nn(-c3ccccc3)cc2CN=Nc2ccc3ccccc3n2)cc1OC [MLS000388895]
> 300 | Cc1cc(CNC(=O)C(C)n2cc([N+](=O)[O-])cn2)c2ccccc2n1 (stereo not given) [SMR000307388]
49.5 | CCOC(=O)c1cnc2ccc(OCC)cc2c1N1CCN(C)CC1 [MLS000047802]
> 300 | Cc1ccnc(NC(=O)Cn2cc([N+](=O)[O-])cn2)c1 [SMR000307337]
> 300 | COc1ccc(C(=O)/C=C2/C(=O)Nc3ccccc32)c(OC)c1 [SMR000543845]
> 300 | COc1ccc(NC(=O)NC2CCCc3ccccc32)cc1 (stereo not given) [SMR000678136]
8.59 | COc1cc(-c2n[nH]c3c2C(c2ccco2)C(C#N)C(=N)O3)cc(OC)c1OC (stereo not given) [MLS000698887]
20.1 | CCC(Sc1ccc2nnc(-c3ccc(F)cc3)n2n1)C(=O)OC (stereo not given) [MLS000093330]
> 300 | CN1CCN(C(=O)CCS(=O)(=O)c2cc3c(cc2Cl)NC(=O)CO3)CC1 [SMR000627499]
> 300 | CCCCc1cc(=O)oc2cc(C)cc(OCc3nn[nH]n3)c12 [MLS000041678]
> 300 | Cc1ccccc1C(=O)Nc1ccc(O)c2c(=O)cc(-c3ccccc3Cl)oc12 [MLS000518806]
> 300 | COc1ccc(-c2nn(-c3ccccc3)cc2CN=Nc2ccc(Cl)c(C(=O)O)c2)cc1OC [SMR000371971]
> 300 | CSc1nc(NCCCN(C)C)c2c3c(sc2n1)CN(C)CC3 [SMR000543143]
6.6 | CCN1CCCC1CNC(=O)c1ccc2c(c1)NC(=O)/C(=C\c1ccc(OC)c(OC)c1)S2 (stereo not given) [MLS001030689]
> 300 | Cc1ccc(C(=O)Nc2ccc(S(=O)(=O)NCc3ccco3)cc2)cc1 [SMR000123393]
0.0951 | COc1ccc2nc3c(cc2c1)c(NC(=O)c1cccs1)nn3CC(C)C [MLS000041975]
> 300 | COc1ccccc1-c1cc(=O)c2c(O)ccc([N+](=O)[O-])c2o1 [MLS000518626]
> 300 | CC(CC(=O)Nc1ccc2c(c1)OCO2)=NNC(=O)c1ccc(N)cc1 [MLS001042207]
> 300 | CCCOC(=O)c1ccc(O)cc1 [SMR000112070]
> 300 | CCOc1ccc(N2C(=O)S/C(=C\c3cccn3C)C2=O)cc1 [MLS000580380]
> 300 | COc1ccc(N(C(=O)c2ccncc2)S(=O)(=O)c2cccc([N+](=O)[O-])c2)cc1 [SMR000668685]
> 300 | OC(CNc1nc(-c2cccnc2)nc2ccccc12)c1ccccc1 (stereo not given) [SMR000592049]
